Data reported in publication PMC8162347, “Bolaamphiphilic Bis-Dehydropeptide Hydrogels as Potential Drug Release Systems” (Gels, 2021).

Experiment: Oscillatory rheology of hydrogels
Assay type: physicochemical
Conditions: for k (growth rate constant) / kn (nucleation rate constant): fit of Equation (1) to gelation kinetics; for dG: fit of Equation (1), increment in storage modulus during the kinetics; for Initial time lag before the significant rise in G′: gelation kinetics, 0.001% strain; for Initial time lag before the significant rise in G′ / G′ / G″: 25 °C; for Initial time lag before the significant rise in G′ / Thermal stability of gel (variation of G′): 1 Hz; for Thermal stability of gel (variation of G′): heating–cooling cycle between 25 and 40 °C, 1 °C/min, strain 0.005%; for G′ / G″: hydrogel at structural equilibrium, frequency sweep 100 to 0.1 Hz, strain 0.01%
Text: This is due to the rather small deformation used during this test to allow gel formation without disturbing the build-up of the network structure. In contrast to this, see the data for compounds 1 and 2. A two-step model is often used to describe the nucleation (with rate constant kn) and growth (with rate constant k) of aggregates of peptides:(1) f(t) = G0 + dGρ(e^(1+ρ)kt − 1)/1 + ρe^(1+ρ)kt where ρ = kn/k , G0 is the initial storage modulus of the aggregate-free solution, and dG is the increment in the storage modulus during the kinetics.
After reaching the structural equilibrium established by the reading of constant shear moduli G′ and G″ with time, a frequency-sweep from 100 down to 0.1 Hz was performed with a strain of 0.01% (Figure S6 in Supplementary Information). For hydrogels obtained from compounds 1, 2, and 3, G′ is essentially constant over the frequency domain tested, and it is 10 times larger than G″. Overall, all mechanical spectra are qualitatively similar and reminiscent of the rheological signature of gels, as G′ is higher than G″ for hydrogels of compounds 1–3 (Table 3). ′
After the thermal cycle, gels were submitted to a strain sweep, where the frequency was maintained at 1 Hz. The hydrogels of compounds 2 and 1 break up more easily than hydrogel of compound 3 (Figure 7). […] In summary, and connecting the rheological data to the structural information inferred from both STEM and CD, coil conformers of compound 2 rapidly self-assemble to build a rubber-like (entropic) network, which brings most of the gel elasticity. This is in contrast to the elastically weaker gels of compound 3, which are predominantly made from the networking of fibrils likely formed from beta conformers. Gels of compound 1 show intermediate elasticity, originating from the slower networking of a mixture of coil and beta sheet conformers.
The viscoelastic characterization of hydrogels was performed with a stress-controlled rotational rheometer Anton Paar MCR300 (Anton Paar GmbH, Graz, Austria). Gel-forming solutions were loaded in the shearing geometry (a Couette cell with 1 mL volume and 0.5 mm gap) at 25 °C. The liquid sample was pre-sheared at a shear rate of 5 s^−1 during one minute to homogenize the sample in the shearing geometry. Then, the gelation kinetics was monitored during 10 h by applying a small amplitude (0.001%) oscillatory shear at 1 Hz and recording both storage (G′) and loss (G″) moduli at each second. Then, mechanical spectra were recorded, and gels were submitted to a heating–cooling cycle between 25 and 40 °C at a rate of +/−1 °C/min. Finally, gels were submitted to a strain sweep.

With `O=C(O)/C(=C/c1ccccc1)NC(=O)[C@H](Cc1ccccc1)NC(=O)c1ccc(C(=O)N[C@@H](Cc2ccccc2)C(=O)N/C(=C\c2ccccc2)C(=O)O)cc1` [Compound 1] the “k (growth rate constant)” value was 0.18 ± 0.10 h⁻¹, the “kn (nucleation rate constant)” value was 0.40 ± 0.04 h⁻¹ and the dG was 2392 ± 66 Pa. For the same compound, the “Initial time lag before the significant rise in G′” value was 2300 s, the “Thermal stability of gel (variation of G′)” value was “not thermally sensitive” and the “G′” value was 2.5 × 10^3 Pa. For the same compound, the “G″” value was 6.5 × 10^1 Pa.

With `O=C(O)/C(=C/c1ccccc1)NC(=O)[C@H](Cc1ccc(O)cc1)NC(=O)c1ccc(C(=O)N[C@@H](Cc2ccc(O)cc2)C(=O)N/C(=C\c2ccccc2)C(=O)O)cc1` [Compound 2] the G0 (fit of Equation (1) (Saitô) to gelation kinetics, initial storage modulus) was 0 ± 25 Pa, the “k (growth rate constant)” value was 1.84 ± 0.04 h⁻¹ and the “kn (nucleation rate constant)” value was 0.02 ± 0.001 h⁻¹. For the same compound, the dG was 5722 ± 39 Pa, the “Initial time lag before the significant rise in G′” value was 4600 s and the “Thermal stability of gel (variation of G′)” value was “shows a thermal hysteresis”. The “G′” value was 4.5 × 10^3 Pa and the “G″” value was 1.4 × 10^2 Pa.
